According to patent US20260125346A1, “Isoquinolinone Derivatives and 4H-Quinolizinone Derivatives and Pharmaceutical Compositions Thereof for the Treatment of Disease” (BeOne Medicines I GmbH, priority 2023, published 2026):

How the values were obtained:
Assay type in all cases: cell-based
[1] = tested on: PI3Kα H1047R mutated cell line T-47D; assay: Phospho-AKT (Ser473) Inhibition Assay (HTRF), T-47D; conditions: for IC50: Homo sapiens, T47D, T-47D, 1 hour treatment, read-out: p-AKT Inhibition assay (S473) IC50 T-47D; for Selectivity: SK-BR-3/T-47D (p-AKT): p-AKT (S473) IC50 ratio
How it was run: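 Cells seeded overnight in insulin-supplemented MEM, then treated 1 h with 11-point 1:3 compound dilutions (10 μM to 0.1 nM final, 0.1% DMSO). Lysates assayed for phospho-AKT Ser473 by HTRF; IC50 from 4-parameter logistic fit, normalised to DMSO (max) and 10 μM GDC0077 (min).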

[2] = tested on: PI3Kα H1047R mutated cell line T-47D cells; assay: Cell Proliferation Assay (CellTiter-Glo), T-47D; conditions: for IC50: Homo sapiens, T47D, 72 h, T-47D, 3 days treatment; for Selectivity: SK-BR-3/T-47D (cell proliferation): cell proliferation IC50 ratio
How it was run: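 T-47D cells seeded overnight at 3×10^3/well, then exposed 3 days to 9-point 1:3 dilutions, final […] to 1 nM in 0.1% DMSO. CellTiter-Glo luminescence; relative IC50 from percent inhibition versus medium-only and 0.1% DMSO controls, 4-parameter logistic fit.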

WT cell line SK-BR-3 [3] = assay: Cell Proliferation Assay (CellTiter-Glo), SK-BR-3; conditions: Homo sapiens, 72 h; SK-BR-3, 3 days treatment
How it was run: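 SK-BR-3 cells treated for 3 days with compound in a 9-point series, final concentrations 10 M to 1 nM in 0.1% DMSO. Viability read by CellTiter-Glo luminescence. Relative IC50 from percent inhibition versus medium-only and DMSO controls, four-parameter logistic fit.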

WT cell line SK-BR-3 [4] = assay: Phospho-AKT (Ser473) Inhibition Assay (HTRF), SK-BR-3; conditions: Homo sapiens; SK-BR-3, 1 hour treatment; read-out: p-AKT Inhibition assay (S473) IC50 SK-BR-3
How it was run: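 SK-BR-3 (PI3Kα WT) cells seeded overnight in MEM with insulin, then treated 1 h with 11-point 1:3 dilutions (10 μM to 0.1 nM, 0.1% DMSO). Lysates read for phospho-AKT Ser473 by HTRF after 4 h antibody incubation at room temperature. IC50 from 4-parameter fit, % inhibition normalized to DMSO (max) and 10 μM GDC0077 (min).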

| IC50 [1] | IC50 [2] | IC50 (WT cell line SK-BR-3 [3]) | IC50 (WT cell line SK-BR-3 [4]) | SMILES | Selectivity: SK-BR-3/T-47D (p-AKT) [1] | Selectivity: SK-BR-3/T-47D (cell proliferation) [2] |
| --- | --- | --- | --- | --- | --- | --- |
| 144 nM | 112 nM | > 10000 nM | > 10000 nM | Cc1cc(C(C)Nc2ccccc2C(=O)O)c2cc(-c3ccc(C#N)cc3)n(C)c(=O)c2c1 (centres unmarked) [Example 4, 2-((1-(3-(4-cyanophenyl)-2,7-dimethyl-1-oxo-1,2-dihydroisoquinolin-5-yl)ethyl)amino)benzoic acid] | >69 | >89 |
| 410 nM | 287 nM | > 10000 nM | 4730 nM | Cc1cc(C(C)Nc2ccccc2C(=O)O)c2cc(-c3cnn(C)c3)n(C)c(=O)c2c1 (centres unmarked) [Example 91, 2-((1-(2,7-dimethyl-3-(1-methyl-1H-pyrazol-4-yl)-1-oxo-1,2-dihydroisoquinolin-5-yl)ethyl)amino)benzoic acid] | 11.6 | >35 |
| 109 nM | > 10000 nM | > 10000 nM | > 10000 nM | Cc1cc(C(C)Nc2sc3ccccc3c2C(=O)O)c2cc(-c3ccccc3)n(C)c(=O)c2c1 (centres unmarked) [Example 92, 2-((1-(2,7-dimethyl-1-oxo-3-phenyl-1,2-dihydroisoquinolin-5-yl)ethyl)amino)benzo[b]thiophene-3-carboxylic acid] | >91 | – |
